In patent publication US10314777B2, “Delivery of hydrophobic bioactive agents” (priority 2010, dated 2019):

Assay: Solubility of the retinoate in the carrier GRANSIL GTS
Type: physicochemical
Text: In some embodiments, a bioactive agent is a vitamin A derivative such as a retinoid. As an example, some embodiments include hydroxyanasatil retinoate, a form of all-trans retinoate sold by Concert, LLC, Memphis, Tenn., optionally in an amount of 0.1 percent by weight. This material is insoluble at this concentration in the carrier sold under the tradename GRANSIL GTS, which is a mixture of ethyl trisiloxane and polysilicone-11. […] Upon exposure to the environment for application to the skin, the carrier volatilizes allowing the crystalline retinoate to resolubilize in the solvent for increased penetration of the skin.

## COc1ccc(C(=O)COC(=O)\C=C(C)/C=C/C=C(C)/C=C/C2=C(C)CCCC2(C)C)cc1 [hydroxyanasatil retinoate]
0.1 percent by weight in ethyl trisiloxane and polysilicone-11
  solubility in carrier GRANSIL GTS: insoluble
0.1 percent by weight, dimethyl isosorbide added at 0.8%
  state in carrier GRANSIL GTS with non-volatile solvent: mixed state of solubilized material and crystalline material
